Entries after “also recorded” stand apart in the source; their conditions may differ.
Experiments:
HDV = HDV infection of HepaRG cells (HDAg immunofluorescence); format: cell-based, hepatitis delta virus; conditions: HDAg positive cells, day 5; concentration-dependent
in vitro = conditions: human, U2OS-HA-hNTCP cells
human NTCP [1] = biological target: T1, human NTCP (Homo sapiens, UniProt Q14973); assay: Taurocholate uptake inhibition studies in U2OS-HA-hNTCP cells; format: cell-based; design: HA; expressed in transfected cells
T1 sequence (Q14973 1-349): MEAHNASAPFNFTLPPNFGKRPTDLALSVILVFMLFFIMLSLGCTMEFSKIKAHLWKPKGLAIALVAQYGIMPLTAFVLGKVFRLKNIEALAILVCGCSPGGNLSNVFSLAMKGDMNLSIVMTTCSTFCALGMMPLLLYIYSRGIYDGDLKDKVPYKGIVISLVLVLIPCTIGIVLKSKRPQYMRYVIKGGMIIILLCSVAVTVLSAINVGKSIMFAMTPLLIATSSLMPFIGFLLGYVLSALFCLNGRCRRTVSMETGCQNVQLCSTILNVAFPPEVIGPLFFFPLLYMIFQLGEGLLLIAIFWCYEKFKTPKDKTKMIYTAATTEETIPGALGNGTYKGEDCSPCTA
Procedure: For MDCK or MDCK-hASBT cells 70.000 cells/well were plated in 24-well plates, followed by 24 hours 10 mM sodium butyrate (Sigma-Aldrich) stimulation the next day. Cells were used in the inhibition studies 24 hours (U2OS cell lines) or 48 hours (MDCK cell lines) later. Inhibition studies with mNTCP transiently transfected cells were conducted 48–72 hours after transfection.
Medium was aspirated from the wells and cells were washed once with 250 µL uptake buffer. Subsequently, cells were pre-incubated with drug in 150 µL uptake buffer for 10 minutes at 37 °C. Taurocholate uptake was initiated by addition of 100 µL uptake buffer containing taurocholate (final concentration 10 µM TC spiked with tritium-labeled TC) and cells were incubated for 2 minutes at 37 °C. Subsequently, cells were washed 4 times with ice-cold PBS and lysed with 0.05% SDS in water. Radioactivity was measured by liquid scintillation counting.

human NTCP [2] = biological target: T1, human NTCP; assay: Myrcludex B-FITC binding by confocal microscopy in U2OS-HA-hNTCP cells; design: HA; expressed in transfected cells
Procedure: After 24 hours, medium was aspirated and cells were washed once with 300 µl Leibovitz’s L-15 Medium (Invitrogen). A 30 minute incubation period followed in which all cells were incubated with 0.2 µM Myrcludex B-FITC with or without drug (1, 10, 100 µM) and Hoechst (1/1000) in 300 µL Leibovitz’s L-15 Medium. Cells were washed twice with Leibovitz’s L-15 Medium and subsequently 400 µL Leibovitz’s L-15 Medium was added. Live cell fluorescent imaging was performed using a Leica SP8X-SMD confocal microscope with fully enclosed incubation at 37 °C. A 63x oil objective was used and images were captured while the cells were consecutively excited at 490 nm (FITC) 350 nm (Hoechst). ImageJ software (National Insititutes of Health, Bethesda, MD) was employed for data analysis.

human NTCP [3] = biological target: T1, human NTCP; assay: Screening taurocholate uptake assay (96-well, [14C]taurocholate, 10 µM drug)

O=C(O)c1cc(/N=N/c2ccc(S(=O)(=O)Nc3ccccn3)cc2)ccc1O [Sulfasalazine]
HDV infection in HepaRG cells (in words) (HDV): reduced HBV/HDV infection; also recorded: reduce | viability at 2 h, 1 µM (in vitro): 98.1 ± 3% | viability at 2 h, 10 µM (in vitro): 90.6 ± 6.9% | viability at 2 h, 100 µM (in vitro): 85 ± 9.1% | concentration at which NTCP was inhibited in repeated measurements of TC-uptake and Myrcludex B binding (human NTCP [1]; U2OS-HA-hNTCP cells, both TC uptake and Myrcludex B binding): ≤ 10 µM | IC50 (human NTCP [1]; U2OS-HA-hNTCP cells, concentrations 1 nM to 10 mM, read-out: IC50 for hNTCP-mediated TC uptake): 9.6 µM | Taurocholate uptake into U2OS-HA-hNTCP cells (in words) (human NTCP [1]; increasing drug concentrations): reduced | Myrcludex B-FITC fluorescence / binding to U2OS-HA-hNTCP cells (in words) (human NTCP [2]; co-administration with increasing amounts of drug): reduced | ≥50% loss of Myrcludex B binding to hNTCP (concentration) (human NTCP [2]; confocal microscopy, 0.2 µM Myrcludex B-FITC, drug 1, 10, 100 µM, concentration at which binding inhibited minimally 50%): ≥1 µM | Ranking score (human NTCP [3]; ranking over the functional and the binding screening assay): 34.8999 | B-score functional assay (human NTCP [3]; screening taurocholate uptake, 10 µM drug): -3.903

From publication PMC5681660, “Reduced hepatitis B and D viral entry using clinically applied drugs as novel inhibitors of the bile acid transporter NTCP” (Scientific Reports, 2017)
